Where two headings read alike, the source gives them in different places. Marks after values point to notes of the source that are not given here.
Assays:
MGL, Ser339Ala [1] = target: T1, MGL, Ser339Ala (Citrobacter freundii, UniProt Q84AR1, S339A); format: biochemical; conditions: for Km / kcat: Ser339Ala MGL, 30°C, pH 8.0, coupled with HOHxoDH or LDH; for specific activity: Ser339Ala MGL samples of 95% purity, 30 mM substrate, pH 8.0
Description: The homogeneity of samples was examined by PAGE electrophoresis under denaturing conditions. During purification, activity was determined in the β-elimination reaction; activity of the final sample was determined in β- and γ-elimination reactions. […] The amount of enzyme that catalyzes the formation of […] of keto acid was defined as the unit of enzymatic activity.
(§1) The kinetic parameters of the γ- and β-elimination reactions were determined at 30°C in the conjugate reaction with HOHxoDH or LDH based on a decrease in NADH absorbance at 340 nm (Δε = 6,220 M^–1cm^–1). The reaction mixtures contained a 100-mM potassium phosphate buffer, pH 8.0, 0.1 mM PLP, 1 mM DTT, 0.2 mM NADH, 70 μg HOHxoDH or 10 U LDH, and variable amounts of the substrate in a total volume of 1 mL. The reaction was initiated by the addition of 10 μg of the enzyme.
(§2) The kinetic parameters were calculated according to the Michaelis–Menten equation using the EnzFitter software. In the calculations, an enzyme subunit molecular weight of 43 kDa was used. The inhibition constants were also determined using the EnzFitter software.

MGL, wild type [2] = conditions: cited from earlier work
MGL, Ser339Ala [3] = target: T1, MGL, Ser339Ala; format: biochemical; conditions: for kex, α-H (exchange rate of C-α-proton) / kex, β-H (exchange rate of C-β-protons): Ser339Ala MGL, D2O, pD 7.6, 30°C, L-alanine 144.23 mM, L-norleucine 98.04 mM; for Number of exchanged C-α-protons / Number of exchanged C-β-protons: common to wild type and Ser339Ala MGL
Description: The kinetics of isotope exchange reactions of the C-α- and C-β-protons for deuteron in inhibitors, catalyzed by the mutant form, was detected using 1H NMR spectroscopy. The reaction was conducted in D2O containing 50 mM potassium phosphate (pD = 7.6), 0.1 mM PLP, and an inhibitor in a total volume of 0.5 mL at 30°C at L-alanine and L-norleucine concentrations of 144.23 mM and 98.04 mM, respectively. The reaction was initiated by adding 0.3–0.7 mg of the enzyme. 1H NMR spectra were recorded at fixed time intervals on a Bruker AMXIII-400 spectrometer at an operating frequency of 400 MHz. The signals of the C-α- and C-β-protons were integrated using the modified Enzkin computer program, which is a part of the XWIN-NMR programs. The kinetic curves of the yields of deuterated products were processed according to the method described in [39]. […]

MGL, wild type [4] = target: MGL, wild type; design: method as in PMID 21166645; conditions: cited from earlier work; for Ki: wild type MGL, γ-elimination of L-methionine, read-out: K I (inhibition constant); for type of inhibition of the physiological reaction: wild-type enzyme
MGL, Ser339Ala [5] = target: T1, MGL, Ser339Ala; experiment: biochemical; format: biochemical; conditions: for Ki: Ser339Ala MGL, γ-elimination of L-methionine, 30°C, pH 8.0, read-out: K I (inhibition constant); for type of inhibition of the physiological reaction: mutant enzyme (Ser339Ala MGL)
Description: as §1, §2

MGL, wild type [6] = conditions: cited from earlier work; remark: listed apart in the source
wild-type MGL = conditions: read-out: dissociation constant of the PLP complex; cited from earlier work
[7] = wild type MGL, substrate of elimination reaction

| Molecule | Km (MGL, Ser339Ala [1]) [mM] | kcat (MGL, Ser339Ala [1]) [s^–1] | kcat (MGL, wild type [2]; [7]) | Km (MGL, wild type [2]; [7]) [µM] | Ki (MGL, wild type [4]) [mM] | type of inhibition of the physiological reaction (MGL, wild type [4]) | type of inhibition of the physiological reaction (MGL, Ser339Ala [5]) | other results |
| --- | --- | --- | --- | --- | --- | --- | --- | --- |
| S-benzyl-L-cysteine [S-Bzl-L-Cys] | 5.76 ± 0.59 | 1.81 ± 0.094 | 8.16 ± 0.23* s^–1 |  |  |  |  | Km (MGL, wild type [2]): 180 ± 20 µM |
| CCSCC[C@H](N)C(=O)O [S-Et-L-Hcy] | 0.54 ± 0.037 | 0.16 ± 0.0016 | 6.78 ± 0.02* s^–1 | 540 ± 10 |  |  |  |  |
| NCC(=O)O [Gly, glycine] |  |  |  |  | 48.5 ± 4.37 | competitive inhibitors | competitive inhibitors | kex, α-H (exchange rate of C-α-proton) (MGL, Ser339Ala [3]): 0.078 s⁻¹; exchange of the pro-(S) proton (MGL, Ser339Ala [3]; mutant form, long incubation in D2O (led to inactivation of the enzyme)): unable to detect any exchange; Ki (MGL, Ser339Ala [5]): 22.9 ± 2.84 mM; kex, α-H (exchange rate of C-α-proton) (MGL, wild type [6]): 20.2* s^-1 |
| CCC[C@H](N)C(=O)O [L-Nva, L-norvaline] |  |  |  |  | 4.6 ± 0.43 | competitive inhibitors | competitive inhibitors | Ki (MGL, Ser339Ala [5]): 1.7 ± 0.32 mM |
| CCCC[C@H](N)C(=O)O [L-Nle, L-norleucine] |  |  |  |  | 0.6 ± 0.06 | competitive inhibitors | competitive inhibitors | kex, α-H (exchange rate of C-α-proton) (MGL, Ser339Ala [3]): 0.46 s⁻¹; kex, β-H (exchange rate of C-β-protons) (MGL, Ser339Ala [3]): 0.12 s⁻¹; Number of exchanged C-α-protons (MGL, Ser339Ala [3]): 1; Number of exchanged C-β-protons (MGL, Ser339Ala [3]): 2; Ki (MGL, Ser339Ala [5]): 0.89 ± 0.09 mM; kex, α-H (exchange rate of C-α-proton) (MGL, wild type [6]; wild type MGL): 41.8* s^-1; kex, β-H (exchange rate of C-β-protons) (MGL, wild type [6]; wild type MGL): 4.74* s^-1 |
| CC[C@H](N)C(=O)O [L-α-Abu, L-α-aminobutyric acid] |  |  |  |  | 8.01 ± 0.76 | competitive inhibitors | competitive inhibitors | Ki (MGL, Ser339Ala [5]): 4.66 ± 0.51 mM |
| NC(CCS)C(=O)O (racemic) [DL-Hcy] | 3.39 ± 0.34 | 0.28 ± 0.009 | 8.51 ± 0.41* s^–1 | 970 ± 150 |  |  |  |  |
| S-methyl-L-cysteine [S-Met-L-Cys] | 21.8 ± 2.25 | 0.41 ± 0.018 | 4.6 ± 0.29* s^–1 | 710 ± 110 |  |  |  |  |
| CC(=O)OCC[C@H](N)C(=O)O [O-Ac-L-Hse, O-acetyl-L-homoserine] | 2.07 ± 0.22 | 0.77 ± 0.011 | 2.1 ± 0.053** s^–1 | 2910 ± 180 |  |  |  |  |
| CSCC[C@H](N)C(=O)O [L-Met, L-methionine] |  |  | 6.2 ± 0.42* s^–1 | 700 ± 110 |  |  |  | specific activity (MGL, Ser339Ala [1]): 0.31 U/mg |
| C[C@H](N)C(=O)O [L-Ala, L-alanine] |  |  |  |  | 3.41 ± 0.4 | competitive inhibitors | competitive inhibitors | kex, α-H (exchange rate of C-α-proton) (MGL, Ser339Ala [3]): 0.387 s⁻¹; kex, β-H (exchange rate of C-β-protons) (MGL, Ser339Ala [3]): 0.116 s⁻¹; Number of exchanged C-α-protons (MGL, Ser339Ala [3]): 1; Number of exchanged C-β-protons (MGL, Ser339Ala [3]): 3; kex, α-H (exchange rate of C-α-proton) (MGL, wild type [6]; wild type MGL): 2.71* s^-1; kex, β-H (exchange rate of C-β-protons) (MGL, wild type [6]; wild type MGL): 2.63* s^-1 |
| CC(=O)OC[C@H](N)C(=O)O [O-Ac-L-Ser] | 16.4 ± 1.09 | 0.047 ± 0.001 | 2.13 ± 0.037*** s^–1 | 4280 ± 330 |  |  |  |  |
| S-ethyl-L-cysteine [S-Et-L-Cys] | 6.47 ± 0.54 | 0.67 ± 0.024 | 5.03 ± 0.16* s^–1 |  |  |  |  | specific activity (MGL, Ser339Ala [1]): 1.03 U/mg; Km (MGL, wild type [2]): 170 ± 20 µM |
| Cc1ncc(COP(=O)(O)O)c(C=O)c1O [PLP, pyridoxal 5’-phosphate] |  |  |  |  |  |  |  | Kd (wild-type MGL): 624 nM |

— PMC9307983 (Acta Naturae, 2022)
